Laboratory results reported in patent US11746116B2, “Antibiotic resistance breakers” (KING'S COLLEGE LONDON, priority 2017, dated 2023).
In brackets after ≈: the same amount, converted by molar mass. Several values for one entry are separate records, joined by “and”; a condition that tells them apart may be missing. Equal entries are not always repeated. Where two headings read alike, the source gives them in different places.

Legend:
SA4 = test: MIC, extended Gram-positive panel; assay type: cell-based, S. aureus; details: S. aureus SA4; gyrA, 84:S => L; grlA, 80:S => F
AYE = test: MIC, microdilution broth method; assay type: cell-based, Acinetobacter baumannii; details: for MIC, AYE: ESKAPE panel, Gram-negative
MSSA9144 = test: MIC, microdilution broth method; assay type: cell-based, Staphylococcus aureus; details: for MIC, MSSA9144: ESKAPE panel, Gram-positive
PA13437 = test: MIC, microdilution broth method; assay type: cell-based; details: for MIC: PA13437; for MIC, PA13437: ESKAPE panel, Gram-negative
Ab17978 = test: MIC, microdilution broth method; assay type: cell-based; details: for MIC, Ab17978: ESKAPE panel, Gram-negative
PA01 = test: MIC, microdilution broth method; assay type: cell-based, Pseudomonas aeruginosa; details: for MIC, PA01: ESKAPE panel, Gram-negative
M6 = test: MIC, microdilution broth method; assay type: cell-based; details: for MIC, M6: ESKAPE panel, Gram-negative
VRE12204 = test: MIC, microdilution broth method; assay type: cell-based, Enterococcus faecium; details: in µg/mL; for MIC: VRE12204; for MIC, VRE12204: ESKAPE panel, Gram-positive
VRE12201 = test: MIC, microdilution broth method; assay type: cell-based, Enterococcus faecalis; details: for MIC, VRE12201: ESKAPE panel, Gram-positive
KP13368 = test: MIC, microdilution broth method; assay type: cell-based; details: for MIC, KP13368: ESKAPE panel, Gram-negative
EMRSA16 = test: MIC, microdilution broth method; assay type: cell-based, Staphylococcus aureus
VSE775 = test: MIC, microdilution broth method; assay type: cell-based, Enterococcus faecalis; set-up: MIC, VSE775: unit not given beside the values; details: for MIC, VSE775: ESKAPE panel, Gram-positive
EMRSA15 = test: MIC, microdilution broth method; assay type: cell-based, Staphylococcus aureus
EC12923 = test: MIC, microdilution broth method; assay type: cell-based; details: for MIC, EC12923: ESKAPE panel, Gram-negative, in µg/mL; for MIC: Escherichia coli (EC12923), Gram-Negative, read-out: MIC
[1] = tested on: Staphylococcus aureus ATCC29213; test: Murine thigh infection model, thigh bacterial burden; assay type: in vivo; details: individual thigh samples, ICR mice
[2] = Ab17978, Normal (no PMBN), in µg/mL
[3] = PA01, Normal (no PMBN), in µg/mL
[4] = KP13368, Normal (no PMBN), in µg/mL
[5] = ESKAPE panel, Gram-positive, in µg/mL
[6] = Acinetobacter baumannii (AYE), Gram-Negative, read-out: MIC
[7] = Staphylococcus aureus (MSSA9144), Gram-Positive, read-out: MIC
[8] = Acinetobacter baumannii (AB17978), Gram-Negative, read-out: MIC
[9] = Pseudomonas aeruginosa (PA01), Gram-Negative, read-out: MIC
[10] = Klebsiella pneumoniae (M6), Gram-Negative, read-out: MIC
[11] = Enterococcus faecalis, Enterococcus (VRE12201), Gram-Positive, read-out: MIC
[12] = Klebsiella pneumoniae (KP13368), Gram-Negative, read-out: MIC
[13] = EMRSA16 (Table 16, role of the terminal pyrimidine ring), in µg/mL
[14] = Staphylococcus aureus (EMRSA16), Gram-Positive (Table 14), read-out: MIC
[15] = Enterococcus faecalis, Enterococcus (VRE775), Gram-Positive, read-out: MIC
[16] = EMRSA15 (Table 16, role of the terminal pyrimidine ring), in µg/mL
[17] = Staphylococcus aureus, Staphylococcus aureus (EMRSA15), Gram-Positive (Table 14), read-out: MIC

MIC, AYE (AYE; in µg/mL) | MIC, MSSA9144 (MSSA9144; in µg/mL) | MIC, PA13437 (PA13437) [µg/mL] | MIC, Ab17978 (Ab17978; in µg/mL) | MIC, EC12923 (EC12923) | MIC, PA01 (PA01; in µg/mL) | MIC, M6 (M6; in µg/mL) | MIC, VRE12204 (VRE12204) | MIC, VRE12201 (VRE12201; in µg/mL) | MIC, KP13368 (KP13368) [µg/mL] | MIC, EMRSA16 (EMRSA16; [5]) | MIC, VSE775 (VSE775) | MIC, EMRSA15 (EMRSA15; [5]) | Compound | further results
 |  |  |  |  |  |  |  |  |  |  |  |  | CCn1cc(C(=O)O)c(=O)c2cc(F)c(N3CCNCC3)cc21 [NOR] | MIC (SA4): 64 µg/mL (≈ 200 µM)
 |  |  |  |  |  |  |  |  |  |  |  |  | C[C@H]1COc2c(N3CCN(c4ccncn4)CC3)c(F)cc3c(=O)c(C(=O)O)cn1c23 [ML-83-001, (S)-9-fluoro-3-methyl-7-oxo-10-(4-(pyrimidin-4-yl)piperazin-1-yl)-2,3-dihydro-7H-[1,4]oxazino[2,3,4-ij]quinoline-6-carboxylic acid] | MIC (AYE; AYE, +PMBN, in µg/mL): 64; MIC (MSSA9144; MSSA9144, in µg/mL): 0.06; MIC (PA13437; +PMBN): 32 µg/mL (≈ 75.2 µM); MIC (Ab17978; Ab17978, +PMBN, in µg/mL): 1; MIC (Ab17978; [2]): 4; MIC (PA01; PA01, +PMBN, in µg/mL): 1; MIC (PA01; [3]): 32; MIC (M6; M6, +PMBN, in µg/mL): 0.5; MIC (M6; M6, Normal (no PMBN), in µg/mL): 8; MIC (VRE12204): 2; MIC (VRE12201; VRE12201, in µg/mL): 0.25; MIC (KP13368; KP13368, +PMBN, in µg/mL): 4; MIC (KP13368; [4]): 64; MIC (EMRSA16; EMRSA16, in µg/mL): 4; MIC (VSE775; VSE775, in µg/mL): 0.25; MIC (EMRSA15; EMRSA15, in µg/mL): 4
64 | 0.25-0.5 | > 64 | 0.5-1 | 0.5-1 | 16 | 2-4 | 8 | 2 | 32 (≈ 79.7 µM) | 32 | 4 | 32 | C[C@H]1COc2c(N3CC[C@@H](N(C)C4CC4)C3)c(F)cc3c(=O)c(C(=O)O)cn1c23 [KSN-L36, (S)-10-((R)-3-(cyclopropyl(methyl)amino)pyrrolidin-1-yl)-9-fluoro-3-methyl-7-oxo-2,3-dihydro-7H-[1,4]oxazino[2,3,4-ij]quinoline-6-carboxylic acid] | 
>32 | 0.5 | > 32 | 2 | 0.5 | >32 | 16 | 16 | 1 | > 32 | >32 | 4 | 32 | C[C@H]1COc2c(N3CC[C@H](Nc4cc(NC5CC5)ncn4)C3)c(F)cc3c(=O)c(C(=O)O)cn1c23 [KSN-L21, (S)-10-((S)-3-((6-(cyclopropylamino)pyrimidin-4-yl)amino)pyrrolidin-1-yl)-9-fluoro-3-methyl-7-oxo-2,3-dihydro-7H-[1,4]oxazino[2,3,4-ij]quinoline-6-carboxylic acid] | 
4 | ≤0.125 | > 32 | ≤0.125 | 0.125 | 4 | 2 | 1 | ≤0.125 | 32 (≈ 72.2 µM) | 1 | ≤0.125 | 0.5 | C[C@H]1COc2c(N3CC[C@@H](Nc4ncc(F)cn4)C3)c(F)cc3c(=O)c(C(=O)O)cn1c23 [KSN-L34, (S)-9-fluoro-10-((R)-3-((5-fluoropyrimidin-2-yl)amino)pyrrolidin-1-yl)-3-methyl-7-oxo-2,3-dihydro-7H-[1,4]oxazino[2,3,4-ij]quinoline-6-carboxylic acid] | MIC (AYE; [6]): 4 µg/mL (≈ 9.02 µM); MIC (MSSA9144; [7]): ≤ 0.125 µg/mL; MIC (Ab17978; [8]): ≤ 0.125 µg/mL; MIC (EC12923): 0.125 µg/mL (≈ 0.282 µM); MIC (PA01; [9]): 4 µg/mL (≈ 9.02 µM); MIC (M6; [10]): 2 µg/mL (≈ 4.51 µM); MIC (VRE12201; [11]): ≤ 0.125 µg/mL; MIC (KP13368; [12]): 32 µg/mL (≈ 72.2 µM); MIC, EMRSA16 (EMRSA16; [13]): 1; MIC (EMRSA16; [14]): 1 µg/mL (≈ 2.26 µM); MIC (VSE775; [15]): ≤ 0.125 µg/mL; MIC, EMRSA15 (EMRSA15; [16]): 0.5; MIC (EMRSA15; [17]): 0.5 µg/mL (≈ 1.13 µM)
>32 | 0.25 | > 32 | 4 | 4 | >32 | 4 | 4 | 1 | > 32 | 8 | 2 | 8 | C[C@H]1COc2c(N3CC[C@H](Nc4ncccn4)C3)c(F)cc3c(=O)c(C(=O)O)cn1c23 [KSN-L19] | 
 |  |  |  |  |  |  |  |  |  |  |  |  | CCn1cc(C(=O)O)c(=O)c2cc(F)c(N3CCN(Cc4cc(=O)[nH]c5ccccc45)CC3)cc21 [ML-77-059] | MIC (AYE; AYE, Normal (no PMBN), in µg/mL): >32; MIC (MSSA9144; MSSA9144, in µg/mL): 16-32; MIC (PA13437; Normal (no PMBN)): > 32 µg/mL; MIC (Ab17978; [2]): 32; MIC (PA01; [3]): >32; MIC (M6; M6, Normal (no PMBN), in µg/mL): 16; MIC (VRE12204): >32; MIC (VRE12201; VRE12201, in µg/mL): >32; MIC (KP13368; [4]): >32; MIC (EMRSA16; EMRSA16, in µg/mL): >32; MIC (VSE775; VSE775, in µg/mL): >32; MIC (EMRSA15; EMRSA15, in µg/mL): >32
8 | ≤0.125 |  | 0.25 | 0.25-0.5 | 4 | 0.5 | 0.5 | ≤0.125 | 8 (≈ 18.8 µM) | 1 | ≤0.125 | 1 | C[C@H]1COc2c(N3CC[C@@H](Nc4cnccn4)C3)c(F)cc3c(=O)c(C(=O)O)cn1c23 [KSN-BL1, (S)-9-fluoro-3-methyl-7-oxo-10-((R)-3-(pyrazin-2-ylamino)pyrrolidin-1-yl)-2,3-dihydro-7H-[1,4]oxazino[2,3,4-ij]quinoline-6-carboxylic acid] | MIC (AYE; [6]): 8 µg/mL (≈ 18.8 µM); MIC (MSSA9144; [7]): ≤ 0.125 µg/mL; MIC (Ab17978; [8]): 0.25 µg/mL (≈ 0.588 µM); MIC (EC12923): 0.25 µg/mL (≈ 0.588 µM); MIC (PA01; [9]): 4 µg/mL (≈ 9.4 µM); MIC (M6; [10]): 0 to 5 µg/mL; MIC (VRE12201; [11]): ≤ 0.125 µg/mL; MIC (KP13368; [12]): 8 µg/mL (≈ 18.8 µM); MIC, EMRSA16 (EMRSA16; [13]): 1; MIC (EMRSA16; [14]): 1 µg/mL (≈ 2.35 µM); MIC (VSE775; [15]): ≤ 0.125 µg/mL; MIC, EMRSA15 (EMRSA15; [16]): 1; MIC (EMRSA15; [17]): 1 µg/mL (≈ 2.35 µM)
 | 0.25 | 32 (≈ 92.1 µM) | 2 | ≤0.125 | 0.25-0.5 | ≤0.125 | 1 | 0.5-1 | 4 (≈ 11.5 µM) | 32 | 1-4 | 32 | C[C@H]1COc2c(N3CC[C@@H](N)C3)c(F)cc3c(=O)c(C(=O)O)cn1c23 [KSN-L44-D, (S)-10-((R)-3-aminopyrrolidin-1-yl)-9-fluoro-3-methyl-7-oxo-2,3-dihydro-7H-[1,4]oxazino[2,3,4-ij]quinoline-6-carboxylic acid] | 

Compound | MIC, AYE (AYE; in µg/mL) | MIC, MSSA9144 (MSSA9144; in µg/mL) | MIC, PA13437 (PA13437) [µg/mL] | MIC, Ab17978 (Ab17978; in µg/mL) | MIC, EC12923 (EC12923) | MIC, PA01 (PA01; in µg/mL) | MIC, M6 (M6; in µg/mL) | MIC, VRE12204 (VRE12204) | MIC, VRE12201 (VRE12201; in µg/mL) | MIC, KP13368 (KP13368) [µg/mL] | MIC, EMRSA16 (EMRSA16; [5]) | MIC, VSE775 (VSE775) | MIC, EMRSA15 (EMRSA15; [5]) | further results
C[C@H]1COc2c(N3CCC(Nc4ncccn4)C3)c(F)cc3c(=O)c(C(=O)O)cn1c23 (stereo partly drawn) [KSN-82-L7, (3S)-9-fluoro-3-methyl-7-oxo-10-(3-(pyrimidin-2-ylamino)pyrrolidin-1-yl)-2,3-dihydro-7H-[1,4]oxazino[2,3,4-ij]quinoline-6-carboxylic acid] | 16-32 | 0.06 | > 32 | 0.5 | 1 | 8-32 | 4-8 | 4 | 0.5 | 16 (≈ 37.6 µM) | 4 | 0.5 | 4 | Bacterial burden data ([1]; 20 mg/kg): 6.42E+02 CFU/g and 1.94E+03 CFU/g and 1.60E+03 CFU/g and 3.05E+03 CFU/g and 1.51E+03 CFU/g and 1.18E+04 CFU/g and 2.48E+03 CFU/g and 3.92E+03 CFU/g and 5.78E+02 CFU/g and 1.80E+03 CFU/g; Bacterial burden data ([1]; 50 mg/kg): 5.94E+02 CFU/g and 2.63E+03 CFU/g and 2.00E+03 CFU/g and 1.44E+03 CFU/g and 9.34E+02 CFU/g and 1.14E+03 CFU/g and 2.58E+03 CFU/g and 1.98E+03 CFU/g and 5.78E+02 CFU/g and 1.70E+03 CFU/g
